For assay [1], the system named is Solenopsis invicta worker ants. Kind of assay: Laboratory virulence test of the combination of Beauveria bassiana and sodium chloride (Embodiment 1 method). The format is in vivo. The following applies: for synergism / effect on the pesticidal effect of Beauveria bassiana: salt added to Beauveria bassiana solution instead of sodium chloride, Embodiment 1 test. How it is done:
In the laboratory virulence test, 5 g of Beauveria bassiana powder formulation was dissolved in 1 L of water and mixed well to give a Beauveria bassiana solution. The used Beauveria bassiana powder formulation contained 20 billion/g of Beauveria bassiana spores. 9 Beauveria bassiana solutions, 100 mL each, were taken from the IL Beauveria bassiana solution, and respectively added with NaCl so that NaCl concentrations in the 9 Beauveria bassiana solutions were: 0 mmol/L, 25 mmol/L, 75 mmol/L, 100 mmol/L, 125 mmol/L, 150 mmol/L, 200 mmol/L, 250 mmol/L, and 300 mmol/L, and thereby Beauveria bassiana/sodium chloride aqueous dispersions were obtained, wherein the Beauveria bassiana spores were present in a concentration of 1×10^8/mL.
The Beauveria bassiana solution, the Beauveria bassiana/sodium chloride aqueous solution, a sodium chloride solution (125 mmol/L), and sterile water were respectively tested for virulence against healthy Solenopsis invicta worker ants, with 3 replicates for each treatment, 1 petri dish in each replicate, and 100 Solenopsis invicta worker ants in each petri dish. […] Data statistical analysis was performed using SPSS 13.0 software, significance testing between samples was performed using the Duncan's method, wherein different lowercase letters indicate a significant difference (P<0.05) in cumulative mortality of the treated Solenopsis invicta.

The test system of assay [2] is Solenopsis invicta worker ants. Kind of assay: Laboratory virulence test of the Beauveria bassiana/sodium chloride aqueous dispersion of water dispersible granule formulation (with adjuvants). The format is in vivo. The following applies: worker ants dipped about 5 seconds, 96 hours after treatment, 1×10^8/mL spores, NaCl alone 125 mmol/L, FIG. 2. An excerpt:
A totally 30 g of Beauveria bassiana powder formulation and sodium chloride (wherein a mass ratio of the Beauveria bassiana powder formulation to sodium chloride included 5:1.46, 5:4.38; 5:5.84, 5:7.30, 5:8.77, 5:11.69, 5:14.61 g, and 5:17.53, and the Beauveria bassiana powder formulation contained 20 billion Beauveria bassiana spores per gram), 8 g of wetting agent butylnaphtalenesulfonic acid sodium salt, 18 g of dispersant sodium lignosulfonate, 5 g of disintegrant calcium chloride, 2 g of stabilizer disodium hydrogen phosphate, 5 g of binder sodium polyacrylate, and 32 g of carrier diatomite, were weighed out and mixed according to a method for preparing a water dispersible granule formulation (1. The raw materials were mixed evenly according to the formula. 2. The materials were ground using a sand mill after mixed evenly, and subjected to spray granulation after determined to be acceptable. 3. The products were screened using a vibrating screen after the spray granulation, products with unacceptable appearance were returned to the sand mill to be ground again, and products with acceptable appearance were further subjected to quality inspection wherein products with unacceptable quality were also returned to the sand mill to be ground again. 4. Products with acceptable quality were packaged. 5. […]

Structures are written as SMILES.

On to `[Cl-].[Na+]` [NaCl, sodium chloride], for which the “96 h cumulative mortality / pesticidal effect” value in assay [1] (worker ants dipped about 5 seconds, 96 hours after treatment, 1×10^8/mL spores, NaCl alone 125 mmol/L, no adjuvants, FIG. 1) is recorded as “no killing effect”; in assay [2], “no killing effect”. Turning to `[Ca+2].[Cl-].[Cl-]` [calcium chloride], the “synergism / effect on the pesticidal effect of Beauveria bassiana” value in assay [1] is on record as “no significant difference”. For the molecule `[Cl][Fe]([Cl])[Cl]` [ferric chloride], the “synergism / effect on the pesticidal effect of Beauveria bassiana” value in assay [1] is recorded as “no significant difference”. Same read-out and setting: the entry for `[Cl-].[Cl-].[Mg+2]` [magnesium chloride] is “no significant difference”. Same read-out and setting: the entry for `[Cl-].[K+]` [potassium chloride] is “no significant difference”.

For the origin of these results see patent publication US11350634B2, “Method for preparing biopesticide preparation for preventing and controlling Solenopsis invicta” (GUANGDONG INSTITUTE OF APPLIED […], priority 2017, dated 2022).
